PubChem BioAssay (NCI)
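Grown in 96-well plates, cells were treated for 48 hours with each compound at five concentrations. Insufficient inhibition: endpoint recorded as highest concentration tested. Abbreviation: GI50, concentration required for 50% inhibition of growth. Definition used: TGI = concentration required for complete inhibition of growth.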

Key:
Experiment in all cases: growth of human tumour cells (NCI), 48 h
KM12 colon = tested on: KM12 colon
LOX IMVI melanoma = tested on: LOX IMVI melanoma
PC-3 prostate = tested on: PC-3 prostate
MALME-3M melanoma = tested on: MALME-3M melanoma
HCT-116 colon = tested on: HCT-116 colon
M14 melanoma = tested on: M14 melanoma
A498 renal = tested on: A498 renal
U251 CNS = tested on: U251 CNS
UACC-257 melanoma = tested on: UACC-257 melanoma
HOP-92 NSCLC = tested on: HOP-92 NSCLC
MDA-MB-231 breast = tested on: MDA-MB-231 breast
CAKI-1 renal = tested on: CAKI-1 renal
SK-MEL-2 melanoma = tested on: SK-MEL-2 melanoma
HOP-62 NSCLC = tested on: HOP-62 NSCLC
OVCAR-4 ovarian = tested on: OVCAR-4 ovarian
SK-OV-3 ovarian = tested on: SK-OV-3 ovarian
OVCAR-8 ovarian = tested on: OVCAR-8 ovarian
NCI-H226 lung = tested on: NCI-H226 lung
BT-549 breast = tested on: BT-549 breast
SF-539 CNS = tested on: SF-539 CNS
SR leukemia = tested on: SR leukemia
HCC-2998 colon = tested on: HCC-2998 colon
SK-MEL-28 melanoma = tested on: SK-MEL-28 melanoma
UACC-62 melanoma = tested on: UACC-62 melanoma
NCI-H522 lung = tested on: NCI-H522 lung
SW-620 colon = tested on: SW-620 colon
UO-31 renal = tested on: UO-31 renal
OVCAR-5 ovarian = tested on: OVCAR-5 ovarian
MOLT-4 leukemia = tested on: MOLT-4 leukemia
HCT-15 colon = tested on: HCT-15 colon
HS 578T breast = tested on: HS 578T breast
ACHN renal = tested on: ACHN renal
HL-60(TB) leukemia = tested on: HL-60(TB) leukemia
NCI/ADR-RES ovarian = tested on: NCI/ADR-RES ovarian
A549 NSCLC = tested on: A549 NSCLC
SF-268 CNS = tested on: SF-268 CNS
DU-145 prostate = tested on: DU-145 prostate
CCRF-CEM leukemia = tested on: CCRF-CEM leukemia
RXF 393 renal = tested on: RXF 393 renal
OVCAR-3 ovarian = tested on: OVCAR-3 ovarian
786-0 renal = tested on: 786-0 renal
COLO 205 colon = tested on: COLO 205 colon
MDA-MB-435 = tested on: MDA-MB-435
RPMI-8226 leukemia = tested on: RPMI-8226 leukemia
NCI-H460 lung = tested on: NCI-H460 lung
SN12C renal = tested on: SN12C renal
SF-295 CNS = tested on: SF-295 CNS
SNB-19 CNS = tested on: SNB-19 CNS
K-562 leukemia = tested on: K-562 leukemia
SNB-75 CNS = tested on: SNB-75 CNS
HT29 colon = tested on: HT29 colon
SK-MEL-5 melanoma = tested on: SK-MEL-5 melanoma

Which results are given for C/C(=C\c1ccc2ccccc2c1)[N+](=O)[O-]?
GI50 (KM12 colon): 2.11 µM; TGI (KM12 colon): 4.19 µM; GI50 (LOX IMVI melanoma): 1.19 µM; TGI (LOX IMVI melanoma): 2.8 µM; GI50 (PC-3 prostate): 1.89 µM; TGI (PC-3 prostate): 3.89 µM; GI50 (MALME-3M melanoma): 2.07 µM; TGI (MALME-3M melanoma): 3.97 µM; GI50 (HCT-116 colon): 2.19 µM; TGI (HCT-116 colon): 5.58 µM; GI50 (M14 melanoma): 2.2 µM; TGI (M14 melanoma): 4.94 µM; GI50 (A498 renal): 8.63 µM; TGI (A498 renal): 20.9 µM; GI50 (U251 CNS): 1.77 µM; TGI (U251 CNS): 3.6 µM; GI50 (UACC-257 melanoma): 1.56 µM; TGI (UACC-257 melanoma): 2.9 µM; GI50 (HOP-92 NSCLC): 1.96 µM; TGI (HOP-92 NSCLC): 5.06 µM; GI50 (MDA-MB-231 breast): 2.02 µM; TGI (MDA-MB-231 breast): 3.92 µM; GI50 (CAKI-1 renal): 1.92 µM; TGI (CAKI-1 renal): 4.05 µM; GI50 (SK-MEL-2 melanoma): 1.85 µM; TGI (SK-MEL-2 melanoma): 3.35 µM; GI50 (HOP-62 NSCLC): 2.31 µM; TGI (HOP-62 NSCLC): 5.49 µM; GI50 (OVCAR-4 ovarian): 1.65 µM; TGI (OVCAR-4 ovarian): 3.01 µM; GI50 (SK-OV-3 ovarian): 14.8 µM; TGI (SK-OV-3 ovarian): 28.7 µM; GI50 (OVCAR-8 ovarian): 1.73 µM; TGI (OVCAR-8 ovarian): 3.17 µM; GI50 (NCI-H226 lung): 2.41 µM; TGI (NCI-H226 lung): 6.97 µM; GI50 (BT-549 breast): 2.24 µM; TGI (BT-549 breast): 4.57 µM; GI50 (SF-539 CNS): 1.64 µM; TGI (SF-539 CNS): 3.07 µM; GI50 (SR leukemia): 0.409 µM; TGI (SR leukemia): 2.56 µM; GI50 (HCC-2998 colon): 2.08 µM; TGI (HCC-2998 colon): 4.23 µM; GI50 (SK-MEL-28 melanoma): 1.95 µM; TGI (SK-MEL-28 melanoma): 4.06 µM; GI50 (UACC-62 melanoma): 1.76 µM; TGI (UACC-62 melanoma): 3.26 µM; GI50 (NCI-H522 lung): 1.58 µM; TGI (NCI-H522 lung): 3 µM; GI50 (SW-620 colon): 1.78 µM; TGI (SW-620 colon): 3.54 µM; GI50 (UO-31 renal): 1.39 µM; TGI (UO-31 renal): 2.9 µM; GI50 (OVCAR-5 ovarian): 1.87 µM; TGI (OVCAR-5 ovarian): 3.63 µM; GI50 (MOLT-4 leukemia): 2.61 µM; TGI (MOLT-4 leukemia): 6.48 µM; GI50 (HCT-15 colon): 1.56 µM; TGI (HCT-15 colon): 3.59 µM; GI50 (HS 578T breast): 2.54 µM; TGI (HS 578T breast): 9.26 µM; GI50 (ACHN renal): 1.79 µM; TGI (ACHN renal): 3.34 µM; GI50 (HL-60(TB) leukemia): 2.03 µM; TGI (HL-60(TB) leukemia): 5.49 µM; GI50 (NCI/ADR-RES ovarian): 7.75 µM; TGI (NCI/ADR-RES ovarian): 23.7 µM; GI50 (A549 NSCLC): 4.58 µM; TGI (A549 NSCLC): 19.3 µM; GI50 (SF-268 CNS): 1.91 µM; TGI (SF-268 CNS): 3.72 µM; GI50 (DU-145 prostate): 1.91 µM; TGI (DU-145 prostate): 3.54 µM; GI50 (CCRF-CEM leukemia): 1.89 µM; TGI (CCRF-CEM leukemia): 5.65 µM; GI50 (RXF 393 renal): 1.65 µM; TGI (RXF 393 renal): 3.06 µM; GI50 (OVCAR-3 ovarian): 1.91 µM; TGI (OVCAR-3 ovarian): 3.37 µM; GI50 (786-0 renal): 1.99 µM; TGI (786-0 renal): 3.83 µM; GI50 (COLO 205 colon): 2.07 µM; TGI (COLO 205 colon): 4.36 µM; GI50 (MDA-MB-435): 1.81 µM; TGI (MDA-MB-435): 3.6 µM; GI50 (RPMI-8226 leukemia): 1.57 µM; TGI (RPMI-8226 leukemia): 4.39 µM; GI50 (NCI-H460 lung): 1.88 µM; TGI (NCI-H460 lung): 3.83 µM; GI50 (SN12C renal): 1.74 µM; TGI (SN12C renal): 3.23 µM; GI50 (SF-295 CNS): 13.1 µM; TGI (SF-295 CNS): 27.6 µM; GI50 (SNB-19 CNS): 6.15 µM; TGI (SNB-19 CNS): 19.7 µM; GI50 (K-562 leukemia): 2.23 µM; TGI (K-562 leukemia): 7.99 µM; GI50 (SNB-75 CNS): 1.84 µM; TGI (SNB-75 CNS): 4.21 µM; GI50 (HT29 colon): 2.18 µM; TGI (HT29 colon): 4.46 µM; GI50 (SK-MEL-5 melanoma): 1.79 µM; TGI (SK-MEL-5 melanoma): 3.87 µM
